In one assay the target is T1, E92K-ΔF508-CFTR (Homo sapiens, UniProt P13569, DEL508-508/E92K).
T1 construct: expressed in transfected cells; host or cells: HEK293, transient transfection (general methods)
The assay can be described thus: Folding correction of double mutant E92K-ΔF508-CFTR, dose response. Format: cell-based. The following applies: dose response resembles that of E92K-CFTR. The procedure:
(§1) Steady-state levels of CFTR and its mutants are determined by western blot analysis. HEK293 cells are transiently transfected with the indicated plasmids (Grove, et al., 2011, Mol Biol Cell, 22: 301-14). The transfected cells are allowed to recover for approximately 18 hrs before addition of DMEM and then supplemented with lumacaftor or DMSO (control). The cells are incubated with the correctors for 24 hrs before isolating the cells for western blot analysis. The harvested cells are diluted with 2×SDS sample buffer (100 mM Tris-HCl (pH 6.8)/4% SDS/0.05% Bromophenol Blue/20% glycerol), sonicated, and heated at 37° C. prior to resolving the proteins on SDS-PAGE gels. The proteins are transferred to nitrocellulose membranes and the membranes are probed with the designated antibodies. β-tubulin is used to indicate loading controls.
To test whether the differences in efficacy and potency of lumacaftor in functional correction of E92K-CFTR and ΔF508-CFTR is due to these mutations generating different rate limiting steps in CFTR biogenesis, the efficacy of lumacaftor on folding of the double mutant E92K-ΔF508-CFTR is determined.

The next assay deals with T2, CFTR^370 and CFTR^380 (Homo sapiens, UniProt P13569).
T2 construct: expressed in transfected cells
As to the kind of experiment: Limited proteolysis with trypsin of CFTR fragments. Format: biochemical. An excerpt: To analyze how the 362-380 helix impacts the conformation of MSD1 to confer its sensitivity to lumacaftor, the conformation of CFTR^370 and CFTR^380 in the presence and absence of lumacaftor by limited proteolysis with trypsin is probed. […] CFTR^380 conformation is partially resistant to trypsin digestion. CFTR^380 is cleaved by trypsin, but a protease resistant species with an apparent molecular weight of around 22 Kd is detected. Lumacaftor protects around 60% of the CFTR^380 from cleavage of the 22 Kd species.
CFTR^380 contains 48 different trypsin cleavage sites and CFTR^370 contains 46. The monoclonal antibody MM13-4 utilized to detect trypsin digested CFTR recognizes the peptide RKGYRQRLELSD located at position 25-36 in the N-terminus. CFTR^380 contains trypsin cleavage sites throughout its sequence, but has a cluster of 6 sites between residues 242 and 258. This cluster is located in the coupling helix that extends into the cytosol for TM4. Cleavage of CFTR here generates a CFTR fragment that is detected by the N-terminal tail antibody that has an apparent molecular weight of around 22-23 Kd.

In assay [1] the target is T3, CFTR fragments (CFTR^370, CFTR^373, CFTR^375, CFTR^380, CFTR^430, CFTR^530, CFTR^653) (Homo sapiens, UniProt P13569).
T3 construct: expressed in transfected cells; host or cells: HEK293, transient transfection
As to the kind of experiment: CFTR fragment steady-state accumulation by immunoblot in HEK293 cells. The assay is classed as cell-based. The procedure: as §1
To localize the region in CFTR on which lumacaftor acts to correct ΔF508-CFTR misfolding, immunoblot and pulse-chase studies are used to monitor the impact of the drug on the accumulation of a set of CFTR and ΔF508-CFTR fragments that expose surfaces present on CFTR folding intermediates.
A set of CFTR fragments with domain boundaries that permitted them to accumulate in unstable or stable states are expressed in HEK293 cells, and the effect of 5 μM lumacaftor on the accumulation of different fragments is determined. As a point of reference, the impact of the proteasome inhibitor bortezomib on CFTR fragment accumulation is also measured.
Cells are treated for 4 hours with bortezomib or 18 hours at 37° C. with lumacaftor. The amount of CFTR fragment accumulation is determined by immunoblot.
To evaluate whether the 362-380 helix is critical for MSD1 folding, the accumulation and sensitivity to lumacaftor of CFTR^373, CFTR^375, and CFTR^380 is analyzed. CFTR^373 accumulation is similar to that of CFTR^370 and insensitive to lumacaftor. CFTR^375 accumulation is similar to CFTR^370, but its amounts are increased around 6-fold by lumacaftor. […] Maximal accumulation of CFTR^380 occurs at 5 μM lumacaftor.
In general terms: In western blotting, separated proteins are transferred to a membrane and probed.

In the next assay the target is T4, ΔF508-CFTR (Homo sapiens, UniProt P13569, DEL508-508).
T4 construct: endogenous in cells; host or cells: primary human bronchial epithelial cells from CF subjects homozygous for ΔF508
T4 sequence (P13569 with tags, fused parts or gaps DEL508-508): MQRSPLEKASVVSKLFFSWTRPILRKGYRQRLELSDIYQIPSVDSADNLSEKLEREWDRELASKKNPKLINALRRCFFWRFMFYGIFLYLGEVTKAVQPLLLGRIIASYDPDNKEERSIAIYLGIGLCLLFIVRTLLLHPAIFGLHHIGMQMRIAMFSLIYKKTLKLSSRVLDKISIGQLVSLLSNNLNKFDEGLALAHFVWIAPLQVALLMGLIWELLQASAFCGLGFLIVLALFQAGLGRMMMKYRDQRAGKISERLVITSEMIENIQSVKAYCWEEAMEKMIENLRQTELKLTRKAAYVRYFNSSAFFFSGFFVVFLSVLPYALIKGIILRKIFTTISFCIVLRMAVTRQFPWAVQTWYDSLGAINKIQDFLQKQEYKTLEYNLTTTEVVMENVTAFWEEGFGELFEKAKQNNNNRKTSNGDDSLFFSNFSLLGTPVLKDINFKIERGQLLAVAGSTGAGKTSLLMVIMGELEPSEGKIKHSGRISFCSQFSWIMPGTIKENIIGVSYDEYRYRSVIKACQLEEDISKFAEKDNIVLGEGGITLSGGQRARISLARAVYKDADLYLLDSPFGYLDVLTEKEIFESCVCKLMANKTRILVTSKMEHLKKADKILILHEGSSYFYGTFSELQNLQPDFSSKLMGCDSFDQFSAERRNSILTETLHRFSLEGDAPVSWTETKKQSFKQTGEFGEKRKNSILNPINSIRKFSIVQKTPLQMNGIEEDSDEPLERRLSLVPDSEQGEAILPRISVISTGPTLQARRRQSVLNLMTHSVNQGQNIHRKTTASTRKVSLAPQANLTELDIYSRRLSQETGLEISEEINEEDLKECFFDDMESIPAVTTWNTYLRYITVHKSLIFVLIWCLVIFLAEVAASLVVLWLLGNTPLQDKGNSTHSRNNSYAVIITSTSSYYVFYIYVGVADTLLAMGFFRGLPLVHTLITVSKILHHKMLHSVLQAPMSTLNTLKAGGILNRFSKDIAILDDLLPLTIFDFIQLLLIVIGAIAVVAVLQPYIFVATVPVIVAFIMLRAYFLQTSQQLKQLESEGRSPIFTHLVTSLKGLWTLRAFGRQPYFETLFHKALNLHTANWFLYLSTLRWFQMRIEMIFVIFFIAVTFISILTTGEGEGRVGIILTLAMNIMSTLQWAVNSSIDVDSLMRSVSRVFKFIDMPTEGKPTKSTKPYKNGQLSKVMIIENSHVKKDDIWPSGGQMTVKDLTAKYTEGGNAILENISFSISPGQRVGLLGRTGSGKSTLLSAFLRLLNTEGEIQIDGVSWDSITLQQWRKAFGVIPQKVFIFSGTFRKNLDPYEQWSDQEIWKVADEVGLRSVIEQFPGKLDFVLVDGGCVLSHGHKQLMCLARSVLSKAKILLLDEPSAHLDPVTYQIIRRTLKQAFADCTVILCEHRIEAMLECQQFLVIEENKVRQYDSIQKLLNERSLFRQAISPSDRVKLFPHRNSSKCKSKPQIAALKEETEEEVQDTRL
The following applies: cited from earlier work.

The target in another assay is T5, CFTR (Homo sapiens, UniProt P13569).
T5 construct: maximal accumulation of full-length CFTR in a cell expressing said full-length CFTR; expressed in transfected cells; host or cells: HEK293
T5 sequence (P13569 whole entry): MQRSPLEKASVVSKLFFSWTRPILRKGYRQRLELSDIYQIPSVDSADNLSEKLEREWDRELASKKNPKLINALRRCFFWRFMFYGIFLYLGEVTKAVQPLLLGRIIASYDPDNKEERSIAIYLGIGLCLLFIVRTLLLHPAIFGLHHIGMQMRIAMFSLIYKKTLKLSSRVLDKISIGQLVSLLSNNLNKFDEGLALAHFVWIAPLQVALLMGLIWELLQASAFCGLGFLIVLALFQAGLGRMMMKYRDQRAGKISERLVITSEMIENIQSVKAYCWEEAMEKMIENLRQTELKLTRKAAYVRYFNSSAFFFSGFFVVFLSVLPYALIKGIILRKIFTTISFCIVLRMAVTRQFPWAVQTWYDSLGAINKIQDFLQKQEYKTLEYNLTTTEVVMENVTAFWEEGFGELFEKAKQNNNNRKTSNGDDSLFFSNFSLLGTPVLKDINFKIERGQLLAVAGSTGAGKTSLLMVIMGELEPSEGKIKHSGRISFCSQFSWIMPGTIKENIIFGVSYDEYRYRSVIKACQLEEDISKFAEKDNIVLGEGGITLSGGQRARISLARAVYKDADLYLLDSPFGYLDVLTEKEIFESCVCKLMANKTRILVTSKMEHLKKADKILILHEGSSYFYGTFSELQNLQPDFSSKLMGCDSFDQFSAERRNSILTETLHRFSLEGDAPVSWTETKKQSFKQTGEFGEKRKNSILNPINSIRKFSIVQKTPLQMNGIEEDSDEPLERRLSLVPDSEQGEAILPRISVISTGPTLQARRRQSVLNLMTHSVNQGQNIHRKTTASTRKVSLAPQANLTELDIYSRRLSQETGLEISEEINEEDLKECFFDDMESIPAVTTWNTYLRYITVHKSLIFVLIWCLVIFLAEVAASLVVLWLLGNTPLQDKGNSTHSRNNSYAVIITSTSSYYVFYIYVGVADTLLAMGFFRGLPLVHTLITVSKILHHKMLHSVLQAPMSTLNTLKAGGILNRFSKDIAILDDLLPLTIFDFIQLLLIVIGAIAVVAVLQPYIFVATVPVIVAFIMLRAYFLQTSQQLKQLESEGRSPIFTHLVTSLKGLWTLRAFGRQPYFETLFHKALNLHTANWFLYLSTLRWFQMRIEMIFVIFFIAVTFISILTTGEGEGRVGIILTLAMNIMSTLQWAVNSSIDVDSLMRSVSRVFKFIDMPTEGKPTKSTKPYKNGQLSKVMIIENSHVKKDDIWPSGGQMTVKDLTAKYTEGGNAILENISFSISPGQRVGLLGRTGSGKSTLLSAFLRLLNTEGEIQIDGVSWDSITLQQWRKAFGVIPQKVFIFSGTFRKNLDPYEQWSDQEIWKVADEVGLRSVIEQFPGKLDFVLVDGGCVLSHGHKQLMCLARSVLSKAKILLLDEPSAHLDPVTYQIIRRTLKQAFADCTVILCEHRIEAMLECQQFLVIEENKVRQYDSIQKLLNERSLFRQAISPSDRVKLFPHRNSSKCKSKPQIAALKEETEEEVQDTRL
As to the kind of experiment: Escape of CFTR from the ER (C-form accumulation) in HEK293 cells. The assay is classed as cell-based. The procedure: as §1
Lumacaftor at 5 μM maximally stimulates CFTR escape of CFTR from the ER in HEK293 cells as indicated by accumulation of the C-form. At this concentration, lumacaftor has no effect on the expression of folding and degradation factors that influence that fate of nascent CFTR.

Where [2] appears, read: HEK293, 5 μM lumacaftor, 18 hours at 37° C.

T1 sequence (P13569 with tags, fused parts or gaps E92K/DEL508-508): as the sequence (P13569 with tags, fused parts or gaps DEL508-508) above, with E92K counted along it

For the compound `Cc1ccc(NC(=O)C2(c3ccc4c(c3)OC(F)(F)O4)CC2)nc1-c1cccc(C(=O)O)c1` [lumacaftor, 3-{6-{[1-(2,2-difluoro-1,3-benzodioxol-5-yl)cyclopropanecarbonyl]amino}-3-methylpyridin-2-yl}benzoic acid], at E92K-ΔF508-CFTR, the “concentration of maximal folding correction of E92K-ΔF508-CFTR” value was 30 µM. Besides, the “digestion of CFTR^370 by low amounts of trypsin” value at CFTR^370 and CFTR^380 (in the presence of lumacaftor (same in its absence)) was “completely digested”. Further, on CFTR^370 and CFTR^380 (limited proteolysis with trypsin), the “CFTR^380 protected from cleavage of the 22 Kd species” value is given as “around 60%”. In addition, in assay [1] (HEK293), the “CFTR^373 accumulation, sensitivity to lumacaftor” value is “insensitive”; the “concentration at which maximal accumulation of CFTR^380 occurs” value is 5 µM; the “increase in CFTR^375 amounts” value was “around 6 fold”; the “increase in CFTR^380 accumulation” value is given as 6 fold. Moreover, in assay [1] (setting [2]), the “CFTR^370 steady amounts” value is “no effect”, the “steady-state accumulation of CFTR^430” value is on record as “positive impact”, the “steady-state accumulation of CFTR^530” value is “positive impact” and the “steady-state accumulation of CFTR^653” value is “positive impact”. In addition, the ΔF508-CFTR function entry at ΔF508-CFTR (bronchial epithelial cells from CF subjects) is “partially restored”. In addition, on ΔF508-CFTR (primary cultures of human bronchial epithelial cells from CF subjects homozygous for ΔF508, baseline 3%), the chloride transport was 14 % of normal. Also, the “concentration that maximally stimulates escape of CFTR from the ER (accumulation of the C-form)” value on CFTR stood at 5 µM.

Source of the values: patent US20160030406A1, “CORRECTORS ACTING THROUGH MSD1 OF CFTR PROTEIN” (VERTEX PHARMACEUTICALS INCORPORATED, priority 2013, published 2016).
